Key:
Format in all cases: cell-based, human
HL-60 cells [1] = assay: Alkaline comet assay, HL-60 cells
Method: Selected iron(II) complexes were added to the suspension of the cells to give final concentrations of 1, 5, 10, 25 and 50 μM. HL-60 and A549 cells were incubated with the complexes for 2 h at 37 °C. The comet assay was performed under alkaline conditions according to the procedure of Tokarz et al.[45]. […] Next, the cells were lysed for 1 h at 4 °C in a buffer containing 2.5 M NaCl, 0.1 M EDTA, 10 mM Tris, 1% Triton X-100, pH 10. Following the lysis, the slides were placed in an electrophoresis unit. DNA was allowed to unwind for 20 min in the solution containing 300 mM NaOH and 1 mM EDTA, pH > 13. […] After separation, the slides were washed in water, drained, stained with 2 μg/ml DAPI and covered with cover slips. As a prevention from additional DNA damage, the procedure described above was conducted under limited light or in the dark. Each experiment included the positive control—cells incubated with H2O2 at 20 µM for 15 min on ice (data not shown).
The comets obtained after single cell gel electrophoresis were analysed in the following manner. […] Hundred images of singular comets were randomly selected from each sample and the mean value of DNA in comet tail was taken as an index of DNA damage (expressed in percent).

HL-60 cells [2] = assay: Cell viability resazurin assay, HL-60 cells; conditions: for viability of HL-60 cells relative to control: ± SD
Method: (§1) The A549 (human non-small cell lung cancer) cell line was obtained from the American Type Culture Collection (ATCC) and cultured in Dulbecco's Modified Eagle Medium (DMEM) with 10% fetal bovine serum (FBS), 2 mM L-Glutamine, 25 mM HEPES and penicillin/streptomycin solution (100 U/ml and 100 µg/ml, respectively). The HL-60 (human promyelocytic leukemia) cell line was also obtained from the American Type Culture Collection (ATCC) and cultured in Iscove’s Modified Dulbecco's Medium (IMDM) with 15% fetal bovine serum (FBS), 2 mM L-Glutamine, 25 mM HEPES and penicillin/streptomycin solution (100 U/ml and 100 µg/ml, respectively). Both cell lines were cultured in flasks at 37 °C in 5% CO2 and sub-cultured every 2–3 days to maintain exponential growth.
(§2) Firstly, resazurin salt powder was dissolved in sterile 1 × PBS. Cells were then seeded on the 96-well plates in the count of 1 × 10^4 in the case of HL-60 cells and of 5 × 10^4 for PBM cells and of 5 × 10^3 for A549 cells per well. A549 cells were seeded 24 h prior to treatment with the complexes to allow cell adherence to 96-well plate. Iron(II) complexes were added to wells to obtain final concentrations of 0.5, 1, 2.5, 5, 10, 25, 50, 100 and 250 μM. Subsequently, plates were incubated at 37 °C in 5% CO2 for 2 h and 24 h. After that 10 μl of resazurin salt was added to each well and plates again were incubated in 37 °C in 5% CO2 for 2 h. Finally, fluorescence was measured with microplate reader Synergy HT (Bio-Tek Instruments, USA) using an excitation wavelength of 530/25 and an emission wavelength of 590/35 nm. The effects of iron(II) complexes were calculated as the percentage of control fluorescence. IC50 (half maximal inhibitory concentration) values were calculated using a website algorithm (https://www.aatbio.com/tools/ic50-calculator). All assays were performed in octuplicate.

A549 cells = assay: Cell viability resazurin assay, A549 cells; conditions: for viability of A549 cells relative to control: ± SD
Method: as §1, §2

PBM cells = assay: Cell viability resazurin assay, PBM cells; conditions: for viability of PBM cells relative to control: ± SD
Text: Peripheral blood mononuclear (PBM) cells were isolated from a leukocyte-buffy coat collected from the blood of healthy, non-smoking donors at the Blood Bank in Lodz, Poland. The study protocol received approval from the Committee for Research on Human Subjects of the University of Lodz (17/KBBN-UŁ/III/2019). The initial step of isolation process involved mixing buffy coats with PBS in a 1:1 ratio. Subsequently, the mixture was centrifuged using a density gradient of Lymphosep (Cytogen, Zgierz, Poland) at 2200 RPM for 20 min, employing the lowest values for acceleration and deceleration. PBM cells were collected and washed three times by centrifugation with 1 × PBS. Following isolation, the cells were suspended in RPMI 1640 medium.
as §2

## O=C1C=CC(=O)[N-]1.[C-]#[O+].[C-]#[O+].[Fe+2].c1cc[cH-]c1 [compound 1, CpFe(CO)2(η^1-N-maleimidato)]
HL-60 cells [1]; 2 h incubation, 1-50 μM tested
  DNA damage in HL-60 cells (alkaline comet assay), in words: induced DNA damage
HL-60 cells [1]; HL-60 cells, 2 h, 50 μM
  DNA in tail (alkaline comet assay): 25%
HL-60 cells [2]; 2 h incubation, 0.5 µM
  viability of HL-60 cells relative to control: 101.68 ± 0.96%
HL-60 cells [2]; 2 h incubation, 1 µM
  viability of HL-60 cells relative to control: 101.06 ± 1.48%
HL-60 cells [2]; 2 h incubation, 2.5 µM
  viability of HL-60 cells relative to control: 100.83 ± 2.04%
HL-60 cells [2]; 2 h incubation, 5 µM
  viability of HL-60 cells relative to control: 97.79 ± 1.25%
HL-60 cells [2]; 2 h incubation, 10 µM
  viability of HL-60 cells relative to control: 89.74 ± 2.7%
HL-60 cells [2]; 2 h incubation, 25 µM
  viability of HL-60 cells relative to control: 83.96 ± 1.62%
HL-60 cells [2]; 2 h incubation, 50 µM
  viability of HL-60 cells relative to control: 73.55 ± 0.27%
HL-60 cells [2]; 2 h incubation, 100 µM
  viability of HL-60 cells relative to control: 24.73 ± 1.89%
HL-60 cells [2]; 2 h incubation, 250 µM
  viability of HL-60 cells relative to control: 15.71 ± 0.21%
HL-60 cells [2]; 24 h incubation
  IC50: 7.69 µM
HL-60 cells [2]; 24 h incubation, 0.5 µM
  viability of HL-60 cells relative to control: 106.53 ± 5.45%
HL-60 cells [2]; 24 h incubation, 1 µM
  viability of HL-60 cells relative to control: 107.4 ± 3.25%
HL-60 cells [2]; 24 h incubation, 2.5 µM
  viability of HL-60 cells relative to control: 109.43 ± 1.41%
HL-60 cells [2]; 24 h incubation, 5 µM
  viability of HL-60 cells relative to control: 89.27 ± 2.42%
HL-60 cells [2]; 24 h incubation, 10 µM
  viability of HL-60 cells relative to control: 42.91 ± 0.62%
HL-60 cells [2]; 24 h incubation, 25 µM
  viability of HL-60 cells relative to control: 37.45 ± 1.48%
HL-60 cells [2]; 24 h incubation, 50 µM
  viability of HL-60 cells relative to control: 30.99 ± 0.27%
HL-60 cells [2]; 24 h incubation, 100 µM
  viability of HL-60 cells relative to control: 14.21 ± 0.37%
HL-60 cells [2]; 24 h incubation, 250 µM
  viability of HL-60 cells relative to control: 3.83 ± 0.21%
A549 cells; 2 h incubation, 0.5 µM
  viability of A549 cells relative to control: 93.79 ± 10.65%
A549 cells; 2 h incubation, 1 µM
  viability of A549 cells relative to control: 93.56 ± 10.37%
A549 cells; 2 h incubation, 2.5 µM
  viability of A549 cells relative to control: 78.45 ± 9.98%
A549 cells; 2 h incubation, 5 µM
  viability of A549 cells relative to control: 67.97±12.88%
A549 cells; 2 h incubation, 10 µM
  viability of A549 cells relative to control: 63.34 ± 13%
A549 cells; 2 h incubation, 25 µM
  viability of A549 cells relative to control: 51.29 ± 9.65%
A549 cells; 2 h incubation, 50 µM
  viability of A549 cells relative to control: 41.64 ± 8.89%
A549 cells; 2 h incubation, 100 µM
  viability of A549 cells relative to control: 36.49 ± 6.19%
A549 cells; 2 h incubation, 250 µM
  viability of A549 cells relative to control: 36.35 ± 4.86%
A549 cells; 24 h incubation
  IC50: 54.2 µM
A549 cells; 24 h incubation, 0.5 µM
  viability of A549 cells relative to control: 75.31 ± 7.67%
A549 cells; 24 h incubation, 1 µM
  viability of A549 cells relative to control: 70.02 ± 8.73%
A549 cells; 24 h incubation, 2.5 µM
  viability of A549 cells relative to control: 73.33 ± 7.65%
A549 cells; 24 h incubation, 5 µM
  viability of A549 cells relative to control: 104.37 ± 10.70%
A549 cells; 24 h incubation, 10 µM
  viability of A549 cells relative to control: 108.72 ± 15.90%
A549 cells; 24 h incubation, 25 µM
  viability of A549 cells relative to control: 82.97 ± 8.04%
A549 cells; 24 h incubation, 50 µM
  viability of A549 cells relative to control: 50.31 ± 12.68%
A549 cells; 24 h incubation, 100 µM
  viability of A549 cells relative to control: 9.43 ± 1.69%
A549 cells; 24 h incubation, 250 µM
  viability of A549 cells relative to control: 2.35 ± 0.49%
PBM cells; 2 h incubation, 0.5 µM
  viability of PBM cells relative to control: 101.07 ± 0.78%
PBM cells; 2 h incubation, 1 µM
  viability of PBM cells relative to control: 100.74 ± 0.73%
PBM cells; 2 h incubation, 2.5 µM
  viability of PBM cells relative to control: 99.56 ± 1.96%
PBM cells; 2 h incubation, 5 µM
  viability of PBM cells relative to control: 99.26 ± 2.82%
PBM cells; 2 h incubation, 10 µM
  viability of PBM cells relative to control: 101.49 ± 4.25%
PBM cells; 2 h incubation, 25 µM
  viability of PBM cells relative to control: 99.86 ± 1.87%
PBM cells; 2 h incubation, 50 µM
  viability of PBM cells relative to control: 100.66 ± 0.97%
PBM cells; 2 h incubation, 100 µM
  viability of PBM cells relative to control: 100.59 ± 1.01%
PBM cells; 2 h incubation, 250 µM
  viability of PBM cells relative to control: 93.17 ± 2.92%
PBM cells; 24 h incubation
  IC50: 106 µM
PBM cells; 24 h incubation, 0.5 µM
  viability of PBM cells relative to control: 106.05 ± 1.67%
PBM cells; 24 h incubation, 1 µM
  viability of PBM cells relative to control: 103.84 ± 0.59%
PBM cells; 24 h incubation, 2.5 µM
  viability of PBM cells relative to control: 99.3 ± 1.2%
PBM cells; 24 h incubation, 5 µM
  viability of PBM cells relative to control: 91.84 ± 1.72%
PBM cells; 24 h incubation, 10 µM
  viability of PBM cells relative to control: 85.39 ± 1.19%
PBM cells; 24 h incubation, 25 µM
  viability of PBM cells relative to control: 89.23 ± 0.44%
PBM cells; 24 h incubation, 50 µM
  viability of PBM cells relative to control: 78.87 ± 1.76%
PBM cells; 24 h incubation, 100 µM
  viability of PBM cells relative to control: 50.82 ± 1.08%
PBM cells; 24 h incubation, 250 µM
  viability of PBM cells relative to control: 21.96 ± 0.71%

Source: paper PMC10920834, “Synthesis, anticancer activity, and molecular docking of half-sandwich iron(II) cyclopentadienyl complexes with maleimide and phosphine or phosphite ligands” (Scientific Reports, 2024)
